According to patent US10011590B2, “Crystalline forms of vilazodone hydrochloride and vilazodone free base” (DR. REDDY'S LABORATORIES LIMITED, priority 2012, dated 2018):

Test: Effect of variation of water (and solvent) content on stability and PXRD pattern of the solid form
Format: physicochemical
Details: for effect of variation of water content on stability and PXRD pattern: variation of water content within the stated range

Q: For `Cl.N#Cc1ccc2[nH]cc(CCCCN3CCN(c4ccc5oc(C(N)=O)cc5c4)CC3)c2c1` [2-benzofurancarboxamide, 5-[4-[4-(5-cyano-1H-indol-3-yl)butyl]-1-piperazinyl]-, hydrochloride (1:1)], which “effect of variation of water content on stability and PXRD pattern” value (“effect of variation of water content” below) is on record?
A: Its value is “does not affect the stability and PXRD pattern”.

Q: Which “effect of variation of water content” value (listed as crystalline form B of vilazodone hydrochloride) does the source give for `Cl.N#Cc1ccc2[nH]cc(CCCCN3CCN(c4ccc5oc(C(N)=O)cc5c4)CC3)c2c1` [Form B, 2-benzofurancarboxamide, 5-[4-[4-(5-cyano-1H-indol-3-yl)butyl]-1-piperazinyl]-, hydrochloride (1:1)] here?
A: Its value is “may not affect the stability and PXRD pattern”.

Q: Which “effect of variation of water content” value (listed as vilazodone hydrochloride crystalline form C) does the source give for `Cl.N#Cc1ccc2[nH]cc(CCCCN3CCN(c4ccc5oc(C(N)=O)cc5c4)CC3)c2c1` [Form C, 2-benzofurancarboxamide, 5-[4-[4-(5-cyano-1H-indol-3-yl)butyl]-1-piperazinyl]-, hydrochloride (1:1)] here?
A: Its value is “may not affect the stability and PXRD pattern”.

Q: For `Cl.N#Cc1ccc2[nH]cc(CCCCN3CCN(c4ccc5oc(C(N)=O)cc5c4)CC3)c2c1` [Form D, 2-benzofurancarboxamide, 5-[4-[4-(5-cyano-1H-indol-3-yl)butyl]-1-piperazinyl]-, hydrochloride (1:1)], which “effect of variation of water and solvents on stability and PXRD pattern” value (variation of water and solvent content of the mixed solvates) is on record?
A: Its value is “may not affect the stability and PXRD pattern”.

Q: Which “effect of variation of water content” value does the source give for `N#Cc1ccc2[nH]cc(CCCCN3CCN(c4ccc5oc(C(N)=O)cc5c4)CC3)c2c1` [form I of vilazodone free base, vilazodone free base] here?
A: The value was “does not affect the stability and PXRD pattern”.
